Experimental data taken from patent publication US20240381872A1, “SUBSTITUTED 2,3-DIHYDRO[1,3]THIAZOLO[4,5-B]PYRIDINES, SALTS THEREOF AND THEIR USE AS HERBICIDALLY ACTIVE SUBSTANCES” (BAYER AKTIENGESELLSCHAFT, priority 2021, published 2024).

How the values were obtained:
Assay type in all cases: in vivo
Kochia scoparia (KCHSC) [1] = assay: Herbicidal pre-emergence action, section A (Table A4); settings: visual grading after ca. 3 weeks vs untreated controls; for pest or weed control at 320 g/ha: application rate 320 g/ha
Text: (§1) Seeds of mono- and dicotyledonous weed plants were sown in plastic pots (double sowings with one species of mono- and one species of dicotyledonous weed plants per pot), in sandy loam, and covered with soil. The compounds according to the invention, formulated in the form of wettable powders (WP) or as emulsifiable concentrates (EC), were applied to the surface of the covering soil as aqueous suspension or emulsion, with the addition of 0.5% of an additive, at an application rate of 600 l of water per hectare (converted). Following treatment, the pots were placed in a greenhouse and kept under optimum growth conditions for the test plants. The visual grading of the damage to the test plants was carried out after ca. 3 weeks in comparison to untreated controls (herbicidal effect in percent (%): 100% effect=plants have died off, 0% effect=as control plants).

Lolium rigidum (LOLRI) = assay: Herbicidal pre-emergence action, section A (Table A5); settings: application rate 1280 g/ha, visual grading after ca. 3 weeks vs untreated controls; for pest or weed control at 1280 g/ha: Lolium rigidum, pre-emergence, 504 h, read-out: pre-emergence activity against LOLRI in %
Text: as §1

[2] = test system: Matricaria inodora (MATIN); assay: Herbicidal pre-emergence action, section A (Table A6); settings: Tripleurospermum inodorum, pre-emergence, 504 h; application rate 1280 g/ha; visual grading after ca. 3 weeks vs untreated controls; read-out: pre-emergence activity against MATIN in %
Text: as §1

Poa annua (POAAN) = assay: Herbicidal pre-emergence action, section A (Table A7); settings: visual grading after ca. 3 weeks vs untreated controls
Text: as §1

Setaria viridis (SETVI) = assay: Herbicidal pre-emergence action, section A (Table A8); settings: for pest or weed control at 320 g/ha: Setaria viridis, 504 h, read-out: pre-emergence activity against SETVI in %
Text: as §1

Stellaria media (STEME) [3] = assay: Herbicidal pre-emergence action, section A (Table A9); settings: Stellaria media, 504 h, application rate 1280 g/ha, read-out: pre-emergence activity against STEME in %
Text: as §1

[4] = test system: Amaranthus retroflexus (AMARE); assay: Herbicidal pre-emergence action, section A (Table A11); settings: for pest or weed control at 320 g/ha: application rate 320 g/ha
Text: as §1

[5] = test system: Digitaria sanguinalis (DIGSA); assay: Herbicidal pre-emergence action, section A (Table A12); settings: for pest or weed control at 1280 g/ha / pre-emergence activity against DIGSA in %: application rate 1280 g/ha
Text: as §1

Kochia scoparia (KCHSC) [6] = assay: Herbicidal post-emergence action, section B (Table B4); settings: visual rating about 3 weeks after treatment vs untreated controls; for pest or weed control at 1280 g/ha / post-emergence activity against KCHSC in %: application rate 1280 g/ha
Method: (§2) Seeds of mono- and dicotyledonous weed plants were placed in plastic pots in sandy loam soil (doubly sown with in each case one species of mono- or dicotyledonous weed plants per pot), covered with soil and cultivated in a greenhouse under controlled growth conditions. 2 to 3 weeks after sowing, the test plants were treated at the one-leaf stage. The compounds of the invention, formulated in the form of wettable powders (WP) or as emulsion concentrates (EC), were applied onto the green parts of the plants as aqueous suspension or emulsion with addition of 0.5% additive at a water application rate of 600 liters per hectare (converted). After the test plants had been kept in the greenhouse under optimum growth conditions for about 3 weeks, the activity of the preparations was rated visually in comparison to untreated controls. For example, 100% activity=the plants have died, 0% activity=like control plants.

Stellaria media (STEME) [7] = assay: Herbicidal post-emergence action, section B (Table B9); settings: application rate 1280 g/ha, visual rating about 3 weeks after treatment vs untreated controls
Method: as §2

[8] = test system: Amaranthus retroflexus (AMARE); assay: Herbicidal post-emergence action, section B (Table B11); settings: application rate 1280 g/ha, visual rating about 3 weeks after treatment vs untreated controls
Method: as §2

[9] = test system: Echinochloa crus-galli (ECHCG); assay: Herbicidal pre-emergence action, section A (Table A3); settings: application rate 1280 g/ha, visual grading after ca. 3 weeks vs untreated controls; for pest or weed control at 1280 g/ha: Echinochloa crus-galli, pre-emergence, 504 h, read-out: pre-emergence activity against ECHCG in %
Text: as §1

Veronica persica (VERPE) [10] = assay: Herbicidal pre-emergence action, section A (Table A10); settings: Veronica persica, 504 h, application rate 1280 g/ha, read-out: pre-emergence activity against VERPE in %
Text: as §1

Veronica persica (VERPE) [11] = assay: Herbicidal post-emergence action, section B (Table B10); settings: application rate 1280 g/ha, visual rating about 3 weeks after treatment vs untreated controls
Method: as §2

[12] = Bassia scoparia, pre-emergence, 504 h, read-out: pre-emergence activity against KCHSC in %
[13] = Amaranthus retroflexus, 504 h, read-out: pre-emergence activity against AMARE in %
[14] = Digitaria sanguinalis, 504 h, read-out: pre-emergence activity against DIGSA in %
[15] = Poa annua, pre-emergence, 504 h, application rate 320 g/ha, read-out: pre-emergence activity against POAAN in %
[16] = Bassia scoparia, post-emergence, 504 h, read-out: post-emergence activity against KCHSC in %

Compound: Cc1cc2c(nc1-c1cccc(F)c1F)N(C(=O)C(C)C)C[S+]2[O-] (centres unmarked) [Example I-028]
- pest or weed control at 320 g/ha (Kochia scoparia (KCHSC) [1]; [12]): 90%
- pest or weed control at 1280 g/ha (Lolium rigidum (LOLRI)): 100%
- pest or weed control at 1280 g/ha [2]: 90%
- pest or weed control at 1280 g/ha (Poa annua (POAAN); Poa annua, pre-emergence, 504 h, application rate 1280 g/ha, read-out: pre-emergence activity against POAAN in %): 100%
- pest or weed control at 320 g/ha (Setaria viridis (SETVI); application rate 320 g/ha): 100%
- pest or weed control at 1280 g/ha (Stellaria media (STEME) [3]): 90%
- pest or weed control at 320 g/ha [4, 13]: 90%
- pest or weed control at 1280 g/ha [5, 14]: 100%
- pest or weed control at 320 g/ha (Kochia scoparia (KCHSC) [6]; Bassia scoparia, post-emergence, 504 h, application rate 320 g/ha, read-out: post-emergence activity against KCHSC in %): 90%
- pest or weed control at 1280 g/ha (Stellaria media (STEME) [7]; Stellaria media, post-emergence, 504 h, read-out: post-emergence activity against STEME in %): 90%

Compound: O=C(c1ccccc1C(F)(F)F)N1CSc2cc(Br)c(-c3ccc(F)cc3F)nc21 [Example I-043]
- pre-emergence activity against POAAN in % (Poa annua (POAAN); application rate 1280 g/ha): 90%
- post-emergence activity against AMARE in % [8]: 90%

Compound: CCC(=O)N1C[S+]([O-])c2cc(C)c(-c3ccc(F)cc3F)nc21 (centres unmarked) [Example I-053]
- pest or weed control at 1280 g/ha [9]: 100%
- pest or weed control at 320 g/ha (Kochia scoparia (KCHSC) [1]; [12]): 90%
- pest or weed control at 1280 g/ha (Lolium rigidum (LOLRI)): 100%
- pest or weed control at 1280 g/ha [2]: 90%
- pest or weed control at 320 g/ha (Poa annua (POAAN); [15]): 100%
- pest or weed control at 320 g/ha (Setaria viridis (SETVI); application rate 320 g/ha): 100%
- pest or weed control at 1280 g/ha (Stellaria media (STEME) [3]): 90%
- pest or weed control at 1280 g/ha (Veronica persica (VERPE) [10]): 90%
- pest or weed control at 320 g/ha [4, 13]: 90%
- pest or weed control at 320 g/ha ([5]; Digitaria sanguinalis, 504 h, application rate 320 g/ha, read-out: pre-emergence activity against DIGSA in %): 100%
- pest or weed control at 1280 g/ha ([8]; Amaranthus retroflexus, post-emergence, 504 h, read-out: post-emergence activity against AMARE in %): 90%

Compound: Cc1ccccc1-c1nc2c(cc1C)[S+]([O-])CN2C(=O)C1CC1 (centres unmarked) [Example I-063]
- pest or weed control at 1280 g/ha [9]: 100%
- pest or weed control at 1280 g/ha (Lolium rigidum (LOLRI)): 100%
- pest or weed control at 320 g/ha (Poa annua (POAAN); [15]): 100%
- pest or weed control at 320 g/ha (Setaria viridis (SETVI); application rate 320 g/ha): 100%
- pest or weed control at 1280 g/ha (Stellaria media (STEME) [3]): 90%
- pest or weed control at 1280 g/ha (Veronica persica (VERPE) [10]): 90%
- pest or weed control at 320 g/ha [4, 13]: 90%
- pest or weed control at 1280 g/ha [5, 14]: 100%
- pest or weed control at 1280 g/ha (Kochia scoparia (KCHSC) [6]; [16]): 90%
- pest or weed control at 1280 g/ha (Veronica persica (VERPE) [11]; Veronica persica, post-emergence, 504 h, read-out: post-emergence activity against VERPE in %): 90%

Compound: CCc1ccccc1-c1nc2c(cc1Br)SCN2B(N)N [Example I-080]
- pre-emergence activity against DIGSA in % [5]: 100%
- post-emergence activity against AMARE in % [8]: 90%

Compound: COC(=O)CCC(=O)N1CSc2cc(C)c(-c3ccc(F)cc3F)nc21 [Example I-084]
- pre-emergence activity against ECHCG in % [9]: 100%
- pre-emergence activity against KCHSC in % (Kochia scoparia (KCHSC) [1]; application rate 1280 g/ha): 90%
- pre-emergence activity against LOLRI in % (Lolium rigidum (LOLRI)): 100%
- pre-emergence activity against POAAN in % (Poa annua (POAAN); application rate 320 g/ha): 100%
- pre-emergence activity against SETVI in % (Setaria viridis (SETVI); application rate 320 g/ha): 100%
- pre-emergence activity against AMARE in % ([4]; application rate 1280 g/ha): 90%
- pre-emergence activity against DIGSA in % [5]: 100%
- post-emergence activity against KCHSC in % (Kochia scoparia (KCHSC) [6]): 90%
- post-emergence activity against STEME in % (Stellaria media (STEME) [7]): 90%
- post-emergence activity against VERPE in % (Veronica persica (VERPE) [11]): 90%
- post-emergence activity against AMARE in % [8]: 90%

Compound: COc1ccccc1-c1nc2c(cc1C)[S+]([O-])CN2S(C)(=O)=O (centres unmarked) [Example I-101]
- pest or weed control at 1280 g/ha [9]: 90%
- pest or weed control at 1280 g/ha (Kochia scoparia (KCHSC) [1]; Bassia scoparia, pre-emergence, 504 h, application rate 1280 g/ha, read-out: pre-emergence activity against KCHSC in %): 90%
- pest or weed control at 1280 g/ha (Lolium rigidum (LOLRI)): 100%
- pest or weed control at 320 g/ha (Setaria viridis (SETVI); application rate 320 g/ha): 100%
- pest or weed control at 1280 g/ha ([4]; Amaranthus retroflexus, 504 h, application rate 1280 g/ha, read-out: pre-emergence activity against AMARE in %): 90%
- pest or weed control at 1280 g/ha [5, 14]: 90%
- pest or weed control at 1280 g/ha (Kochia scoparia (KCHSC) [6]; [16]): 90%

Compound: Fc1c(Cl)cccc1-c1nc2c(cc1Br)SCN2 [Example I-103]
- pre-emergence activity against ECHCG in % [9]: 90%
- pre-emergence activity against POAAN in % (Poa annua (POAAN); application rate 1280 g/ha): 100%
- pre-emergence activity against SETVI in % (Setaria viridis (SETVI); application rate 1280 g/ha): 100%
- pre-emergence activity against AMARE in % ([4]; application rate 1280 g/ha): 90%
- post-emergence activity against KCHSC in % (Kochia scoparia (KCHSC) [6]): 90%
- post-emergence activity against STEME in % (Stellaria media (STEME) [7]): 90%
